Data on 7 compounds can be found in patent US20250215026A1, “Deuterated Compounds, Compositions and Uses” (BioJive LLC, priority 2018, published 2025).

Data set [1] in a line: Liposome leakage of sulforhodamine B by fluorescence correlation spectroscopy, +/- Fe2+/ascorbate. On the procedure:
The equipment set up and peak intensity analysis was conducted as described in Perevoshchikova, et al., Biochim. Biophys. Acta 1778, 2182-2190 (2008). Briefly, fluorescence excitation and detection utilized a Nd: YAG solid state laser with a 532-nm beam attached to an Olympus IMT-2 epifluorescent inverted microscope equipped with a 40×, NA 1.2 water immersion objective (Carl Zeiss, Jena, Germany). The fluorescence light passed through an appropriate dichroic beam splitter and a long-pass filter and was imaged onto a 50-μm core fiber coupled to an avalanche photodiode (SPCM-AQR-13-FC, PerkinElmer Optoelectronics, Vaudreuil, Quebec, Canada). The signal from an output was sent to a PC using a fast interface card (Flex02-01D/C, Correlator.com, Bridgewater, NJ). The data acquisition time was 30 s. The fluorescence was recorded from the confocal volume located at about 50 μm above the coverslip surface with 50 μL of the buffer solution added. Most of the data were collected under the conditions of stirring a suspension by a paddle-shaped 3-mm plastic bar rotated at 600 rpm. To calibrate the setup, the fluorescence autocorrelation function of Rhodamine 6G solution was recorded. Assuming the diffusion coefficient of the dye to be 2.5×10^−6 cm^2/s, the value of the confocal radius is circa ω=0.42 μm. The correlated fluorescence emission signals were fitted to the three-dimensional autocorrelation function as described in Hess, et al., Biochemistry 41; 697-705 (2002).
SRB-loaded liposomes were suspended in an aqueous solution of Fe^2+ and ascorbate […], prepared from lipid mixtures containing linoleoyl stearoyl phosphatidylcholine (H-Lin-PC) as the bulk lipid (unless otherwise stated) with various contents of a series of 1-stearoyl phosphatidylcholines, including compounds of Formula (II). To measure G(τ→0) more precisely, the FCS experiments were performed under stirring conditions. […] The reduction of the G(τ→0) amplitude apparently reflected an increase in the number of fluorescent particles due to SRB release from liposomes. […]

Data set [2] can be described thus: Incorporation of orally dosed D-DHA into retina by nanoSIMS. It is filed as in vivo, mouse. Conditions: after three days of dosing. On the procedure: In this example, D-DHA (20 mg; 1 mg/ul) was administered orally as ethyl ester to a wild-type mouse by gavage for three consecutive days in addition to unrestricted regular DHA-free rodent diet. Mouse retina was harvested and then fixed and embedded in resin. Retinal sections were analyzed with nanoscale secondary ion mass spectrometry (nanoSIMS) to determine the incorporation rates of D-DHA into retinal cells by measuring the relative enrichment of DHA-bound deuterium over its natural tissue abundance. The D-DHA/DHA substitution rate of natural DHA in the outer segments was calculated by the ratio of increased deuterium abundance vs. total hydrogen contribution of DHA in outer segments.

On to `[2H]C([2H])(/C=C\CC)/C=C\C([2H])([2H])/C=C\C([2H])([2H])/C=C\C([2H])([2H])/C=C\CCCC(=O)O[C@@H](COC(=O)CCCCCCCCCCCCCCCCC)COP(=O)([O-])OCC[N+](C)(C)C` [D8-EPA-PC, 1-stearoyl-2-(7,7,10,10,13,13,16,16-D8-eicosapentaenoyl)-sn-glycero-3-phosphatidylcholine], for which, where the note is “FIG. 6”, the “relative strength of protection of H-Lin-PC bulk: % in bilayer” value (from here on “relative strength … % in bilayer”) worked out at 10%. In the case of `[2H]C([2H])(/C=C\CC)/C=C\C/C=C\CCCCCCCC(=O)O[C@H](COC(=O)CCCCCCCCCCCCCCCCC)COP(=O)([O-])OCC[N+](C)(C)C` [D2-Lnn-PC, 1-stearoyl-2-(14,14-D2-linolenyl)-sn-glycero-3-phosphatidylcholine], the “percentage needed for protection of H-Lin-PC matrix, relative to D4-Lnn-PC” value (FIG. 6) is reported as “about twofold as high as that of D4-Lnn-PC”. As for `[2H]C([2H])(/C=C\CC)/C=C\C([2H])([2H])/C=C\CCCCCCCC(=O)O[C@H](COC(=O)CCCCCCCCCCCCCCCCC)COP(=O)([O-])OCC[N+](C)(C)C` [D4-Lnn-PC, 1-stearoyl-2-(11,11,14,14-D4-linolenyl)-sn-glycero-3-phosphatidylcholine], the “relative strength … % in bilayer” value (FIG. 6) stood at 17%. As for `[2H]C([2H])(/C=C\CCCCC)/C=C\CCCCCCCC(=O)O[C@H](COC(=O)CCCCCCCCCCCCCCCCC)COP(=O)([O-])OCC[N+](C)(C)C` [D2-Lin-PC, 1-stearoyl-2-(11,11-D2-linoleyl)-sn-glycero-3-phosphatidylcholine], the “effect of incubation with Fe/ascorbate on G(τ→0) amplitude of SRB” value in data set [1] (10% D2-Lin-PC in H-Lin-PC, 0, 10, 20 min, FIG. 1A) is reported as “led to a decrease in the G(τ→0) amplitude”. For the same compound, in data set [1] (25% D2-Lin-PC in H-Lin-PC, FIG. 1B), the “effect of incubation with Fe2+/ascorbate on G(τ→0) amplitude of SRB” value was “did not reduce the amplitude of G(τ→0) or reduced it to a very low extent”. In addition, in data set [1] (100% of the deuterated lipid, FIG. 2A), the “difference between extent of liposome leakage α with and without Fe2+/ascorbate” value is “very low”. Also, the “relative strength … % in bilayer” value (FIG. 6) is listed as 25%. In addition, the “% of deuterated lipid giving very low level of ΔA234 and very low difference in α +/- Fe2+/ascorbate” value (t=10 min, in H-Lin-PC, FIG. 3) is given as no less than 20%.

With `[2H]C([2H])(/C=C\CC)/C=C\C([2H])([2H])/C=C\C([2H])([2H])/C=C\C([2H])([2H])/C=C\C([2H])([2H])/C=C\CCC(=O)OCC` [D-DHA, 6,6,9,9,12,12,15,15,18,18-D10-docosahexaenoic acid ethyl ester], the “level reached in retinal tissues after oral dosing” value in data set [2] is listed as “above 1%”.

With `[2H]C([2H])(/C=C\CCCCC)/C=C\C([2H])([2H])/C=C\C([2H])([2H])/C=C\CCCC(=O)O[C@H](COC(=O)CCCCCCCCCCCCCCCCC)COP(=O)([O-])OCC[N+](C)(C)C` [D6-Ara-PC, 1-stearoyl-2-(7,7,10,10,13,13-D6-arachidonoyl)-sn-glycero-3-phosphatidylcholine], the “relative strength … % in bilayer” value (FIG. 6) is given as 12%. `[2H]C([2H])(/C=C\CC)/C=C\C([2H])([2H])/C=C\C([2H])([2H])/C=C\C([2H])([2H])/C=C\C([2H])([2H])/C=C\CCC(=O)O[C@H](COC(=O)CCCCCCCCCCCCCCCCC)COP(=O)([O-])OCC[N+](C)(C)C` [D10-DHA-PC, 1-stearoyl-2-(6,6,9,9,12,12,15,15,18,18-D10-docosahexaenoyl)-sn-glycero-3-phosphatidylcholine]: for the setting “diene conjugates assay, H-Lin-PC matrix”, the “protection, fold stronger than for D6-Ara” value was determined as 10 fold. The “level suppressing lipid autooxidation, diene conjugates assay” value (in the H-Lin-PC matrix, FIG. 6) is recorded as no more than 1%. Also, the “protection from oxidative stress compared to other deuterated lipids” value (undeuterated H-Lin-PC matrix, FIG. 6) is given as “substantially enhanced protection from oxidative stress”.
